On the set-up of data set [1]: method as in reviewer #3 remark. The note with it: in humans; ref reviewer #3 remark; cited from earlier work.
Data set [2] deals with blood-stage P. yoelii. As to the kind of experiment: 4-day suppression murine model, oral. The format is in vivo, P. yoelii in CF1 mice. The source says:
Animals were housed at the VAPORHCS in Thoren Maxi-Miser microisolator cages (78 sq. in. floor space) with a maximum density of five females or four males per cage. Cages were maintained on a 12-h light/dark cycle and provided with autoclaved nesting materials (nestlets) for environmental enrichment. All mice had ad libitum access to food and water. Four- to five-week-old female and male outbred CF1 mice (Charles River Laboratories, Raleigh, NC, USA) were randomly assigned to treatment and control groups using a simple randomization procedure (e.g., computer-generated random numbers) to ensure balanced distribution of baseline body weights and starting parasitemia levels across all cohorts. Groups of four mice (n = 4, mean body weight of each group was ~30 g) were infected intravenously with 3.5 × 10^4 P. yoelii (Kenya strain, MRA-428) from a donor animal. Drug administration commenced the day after the animals were inoculated (Day 1). The test drug or the drug combination was dissolved in PEG-400 and administered by oral gavage once daily for 4 successive days in the 4-day suppression model, but only once on Day 1 in the single-dose cure model. Blood was collected via the tail vein with the aid of a syringe needle on Day 5 and then at weekly intervals through Day 28. Blood films were Giemsa-stained and examined microscopically to determine the level of parasitemia. All mice were observed daily to assess clinical signs. Animals with observable parasitemia following the experiments were euthanized; animals cleared of parasitemia from their bloodstream were observed daily with assessment of parasitemia performed weekly until Day 28, at which point, the animal(s) were scored as cured of the infection and then humanely euthanized. All treated mice with a negative smear on Day 28 were considered cured (100% protection). […]

The subject of data set [3] is normal and G6PD-deficient RBCs. As to the kind of experiment: eryptosis assay (annexin-V binding, ROS, forward scatter). The format is cell-based, human. The note with it: 48 h incubation. The protocol: In vitro evaluation of eryptosis as a marker for induced hemolytic toxicity was performed using de-identified human blood samples obtained from the Clinical Trial Center at WRAIR, using established methods[55],[81],[82]. Fresh Li-heparin-anticoagulated blood samples was centrifuged and the platelet and leukocyte-containing supernatant was removed. […] Flow cytometry was employed to estimate stimulators of eryptosis: phosphatidylserine exposure at the cell surface from annexin-V-binding, reactive oxygen species (ROS) formation from 2′,7′-dichlorodihydrofluorescein diacetate (DCFDA) dependent fluorescence, and cell volume from forward scatter. […]
After incubation under the respective experimental condition, cell suspension was washed in Ringer solution containing CaCl2 and then stained with Annexin-V-FITC at 37 °C for 15 min under protection from light. The annexin-V-abundance at the erythrocyte surface was subsequently determined on a FACS Calibur. Annexin-V-binding was measured at an excitation wavelength of 488 nm and an emission wavelength of 530 nm. […]
Oxidative stress was determined utilizing DCFDA. […] The DCFDA-loaded erythrocytes were resuspended in Ringer solution and ROS-dependent fluorescence intensity was measured at an excitation wavelength of 488 nm and an emission wavelength of 530 nm on a FACS Calibur. Subsequently, the geomean of the DCFDA dependent fluorescence was determined. […]

Data set [4] relates to luciferase-expressing P. berghei sporozoites. The data set can be described thus: liver-stage prophylaxis murine model with IVIS bioluminescence imaging. The format is in vivo, P. berghei in Albino C57BL/6 mice. The note with it: Days -1, 0, 1. The source says:
Four- to six-week-old female inbred Albino C57BL/6 mice (18–22 g, Jackson Laboratories, Bar Harbor, ME, USA) were utilized. Animals were assigned unique study numbers via ear tags and cage cards and were randomly assigned to treatment or control groups (n = 5 per group) using a weigh-stratified randomization procedure. All animals were quarantined and acclimatized for 7 days prior to study initiation and were housed in a 12:12 light/dark cycle with food and water provided ad libitum. Mice were infected intravenously with 10^4 luciferase-expressing P. berghei sporozoites (ANKA strain) via tail vein injection on Day 0. Drugs were dissolved in PEG-400 and administered orally once per day on Day -1, Day 0, and Day 1. […] Infection reduction was assessed by comparing the bioluminescence signals emitted by treated groups with signals emitted by the vehicle control-treated group at that time point. Later blood-stage parasitemia was determined via flow cytometry. […] Long-term blood-stage efficacy was evaluated starting on Day 6 post-infection and continued for up to 31 days using flow cytometry.
In vivo antimalarial efficacy studies were performed as described above.

Data set [5] concerns Salmonella typhimurium TA98 and TA100. The data set can be described thus: Ames assay. The format is cell-based. Particulars: 10 µM; TA98 and TA100, with and without S9 activation. The protocol:
Mutagenicity was assessed using the Ames assay[54] (EBPI, Ontario, Canada) against S. typhimurium TA100 and TA98, with and without S9 activation. The tester strain S. typhimurium (TA100 and TA98) cultures were inoculated from the lyophilized pellets and grown in nutrient broth provided by EBPI. Each inoculated vial (5 mL volume with antibiotics) was placed overnight in the incubator at 37 °C. The positive controls for the assay were 1.0 µg/µL 2-aminoanthracene (2-AA) for incubations with the S9 mix and 5 µg/mL sodium azide (NaN3, used for TA100) and 300 µg/mL 2-nitrofluorene (2NF, used for TA98) for incubations without the S9 mix. […] An aliquot (0.2 mL) of the mixture was then added to each well of a 96-well plate. The 96-well plates were covered, sealed in zip-lock bags, and incubated for 5 days at 37 °C. Plates were scored visually, and the positive wells against background mutations were statistically analyzed.
Background: The Ames test uses bacterial strains that need an amino acid and regain growth without it when mutated back.

[6] abbreviates: as stated in response to reviewers.

These results are taken from PMC13168289, “Potent acridone antimalarial against all three life stages of Plasmodium” (Nature Communications, 2026).

As for `O=C1C(O)=C([C@H]2CC[C@H](c3ccc(Cl)cc3)CC2)C(=O)c2ccccc21` [ATV, atovaquone], the T1/2 in data set [1] was 120 to 140 h.
One may read the ED50 as the dose at which the effect has come halfway, by size or by number of responders. With `O=c1c2ccc(Oc3ccc(OC(F)(F)F)cc3)cc2[nH]c2cc(Cl)cc(F)c12` [T111], the ED50 in data set [2] (setting [6]) was 0.27 mg/kg/day; in data set [2] (female mice, oral) it was 0.35 mg/kg/day; in data set [2] (male mice, oral), 0.33 mg/kg/day. In addition, the ED90 in data set [2] (setting [6]) was 0.39 mg/kg/day; in data set [2] (female mice, oral) it was 0.50 mg/kg/day; in data set [2] (male mice, oral), 0.46 mg/kg/day. Moreover, the curative dose in data set [2] (four consecutive days, oral) is given as 10 mg/kg/day. In addition, in data set [3], the “eryptosis as marker of hemolytic toxicity” value was “did not show the toxicity seen with TQ”. Also, the “protection from liver-stage infection” value in data set [4] (1 mg/kg/day oral) is recorded as “did not clear liver-stage infection”; in data set [4] (4 mg/kg/day oral), “did not clear liver-stage infection”; in data set [4] (10 mg/kg/day oral) it was “full protection”. Moreover, the Ames test result in data set [5] is given as “negative”.
